How the values were obtained:
DENV2 = experiment: Time-of-drug addition study (TOA) in DENV2 infected LLC/MK2 cells; format: cell-based, Dengue virus; details: 10 μM; for decrease of DENV2 plaque titer from DMSO-treated baseline: supernatants
Procedure: To access the stage of the viral life cycle affected by FV13, we performed a time-of-addition assay. Briefly, FV13 (10 μM) was added to DENV2 infected LLC/MK2 cells at various time points as described in Methods section. DMSO was added in parallel as a control treatment. Supernatants were collected for plaque titration and cell lysates were collected for RT-qPCR analysis. […] If the drug was added at 12 hpi or later, only 1-log decrease was observed (Fig. 4A,B). […] The first molecular target could interact with FV13 earlier than 2 hpi and its effect was still visible until 8–10 hpi. The other target could locate at late post-replication steps such as assembly, maturation, or release because a 1-log discrepancy between plaque and RT-qPCR titers indicated genome replication was unaffected. Further investigations will reveal insights into the actual target of this compound.
(§1) After supernatant collection, the remaining cells in experimental plates were extracted for viral RNAs using TRIzol reagent (Invitrogen, California, USA) according to the manufacturer’s protocol. The samples were loaded into the Direct-zol™ RNA MiniPrep (Zymo research, California, USA) and quantified by Nanodrop spectrophotometry (Eppendorf, New York, USA). The RT-qPCR was performed with a Step-OnePlus Real-Time PCR System (Applied Biosystems, California, USA.) with 1 × Power SYBRGreen PCR Master Mix, 400 nM each of capsid primers[40] or 250 nM of NS1 primers[41] and 0.1 µg of total RNA. The reactions were then cycled at 48 °C 30 min and 95 °C 10 min, followed by 45 cycles of 95 °C for 20 s (denaturation), 55 °C for 30 s (annealing), 72 °C for 30 s (extension). Each sample was analyzed in triplicated and results were confirmed by two independent experiments.
LLC/MK2 cells were seeded in 24-well plate and incubated as previously described. Cells were then infected with DENV2 (M.O.I. of 0.1). FV13 (10 µM) was added at various time points, early time points (−1, 0, 2, 4, 6, 8, 10, and 12 hpi) and late time points (12, 14, 16, 20, and 24 hpi) and the plates were incubated for 5 days. Supernatants were collected to determine the viral titer by plaque titration assay and the cells were collected to determine viral RNA content by RT-qPCR. Results were confirmed by three independent experiments in which each time point was tested in duplicate.

DENV2 NGC = experiment: Primary screening: compounds added to DENV2 infected LLC/MK2 cells, plaque titration of culture supernatants; format: cell-based, Dengue virus
Procedure: In this study, we selected 8 flavonoid derivatives (Fig. 1) and tested their effect on DENV2 NGC in a LLC/MK2 cell-based system. Briefly, the compounds at final concentrations of 10 μM and 25 μM in DMSO were added to DENV2 infected LLC/MK2 cells and the effect on viral particle production was measured by plaque titration of the culture supernatants. […] We also tested cytotoxicity of FV13, FV14, and CH1 to verify the viral inhibition in LLC/MK2 cells (Table 2). The viabilities of FV13 treated cells were 81.00 ± 2.69% and 59.40 ± 2.42%, at 10, and 25 µM respectively, whereas the values for FV14 treated cells were 60.24 ± 3.31% and 60.86 ± 3.57%. We also examined Vero, THP-1, HepG2, and HEK-293 cell viabilities in the presence of selected compounds (Table 2).
LLC/MK2 cells were seeded at 5 × 10^4 cells into each well of 24-well plate and incubated overnight at 37 °C under 5% CO2. Cells were infected with DENV2 at the multiplicity of infection (M.O.I.) of 0.1, unless indicated otherwise, for 1 h with gentle rocking every 15 min. Cells were washed with phosphate buffer saline (PBS) and incubated with 1 ml of MEM medium supplemented with 1% FBS as previously described. The compounds were prepared in dimethylsulfoxide (DMSO) at the indicated concentrations before addition to viral infected cells. Supernatants were collected after 5 day incubation and analyzed by plaque titration. In primary screening, DMSO-treated cells served as the untreated control. Compounds that inhibited virus production by ≥90% were selected for further characterization.

[1] = system: BHK-21/DENV2 replicon cells; experiment: Replicon inhibition assay, RT-qPCR of replicon RNA; format: cell-based; details: Dengue virus, DENV2, BHK-21, 72 h, read-out: inhibition of DENV2 replicon replication
Procedure: Next, we studied FV13 inhibition in a DENV2 replicon replication system to investigate whether translation and replication could be implicated as drug targets. BHK-21/DENV2 replicon cells[28] were treated with 5 and 10 µM FV13 and incubated for 72 h before measuring replication efficiency by quantifying replicon RNA. Ribavirin, a known dengue virus replication inhibitor[29], was used as a positive control.
as §1
BHK-21 cells expressing a DENV2 replicon (BHK-21/DENV2) were maintained in minimal essential medium (MEM) supplemented with 10% fetal bovine serum (FBS), and 0.3 mg/ml G418 (Bio Basic Canada, Ontario, Canada). The protocol was adapted from Boonyasuppayakorn et al., 2014 [28]. Briefly, cells (5 × 10^4/well) were seeded into 24-well plates and were incubated for 1 day at 37 °C in a humidified CO2 chamber followed by addition of the compounds in 1% DMSO at final concentrations of 5 µM and 10 µM. DMSO (1%) alone was used as the no-inhibitor control (0% inhibition) and the reference compound was ribavirin (TargetMol, Massachusetts, USA) at a final concentration of 5 µM or 10 µM. Cells were incubated at 37 °C for 72 h and lysed to quantify DENV2 replicons by RT-qPCR. Data were reported as percent inhibition compared with ribavirin, as a reference compound and DMSO, 0% inhibition. Results were confirmed by three independent experiments.

ZIKV (SV0010/15) = experiment: Antiviral efficacy (EC50) in virus infected LLC/MK2 cells, plaque assay; format: cell-based, Zika virus
Procedure: Compound at various concentrations were added to virus infected LLC/MK2 cells and viral titers were accessed by plaque titration of supernatants as previously described.
LLC/MK2 cells were seeded at 5 × 10^4 cells into each well of 24-well plate and incubated overnight at 37 °C under 5% CO2. Cells were infected with DENV2 at the multiplicity of infection (M.O.I.) of 0.1, unless indicated otherwise, for 1 h with gentle rocking every 15 min. Cells were washed with phosphate buffer saline (PBS) and incubated with 1 ml of MEM medium supplemented with 1% FBS as previously described. The compounds were prepared in dimethylsulfoxide (DMSO) at the indicated concentrations before addition to viral infected cells. Supernatants were collected after 5 day incubation and analyzed by plaque titration[9].
Compounds were prepared in DMSO at 8–12 different concentrations and added to virus infected cells as previously described. Supernatants were collected and the EC50 values were calculated from nonlinear regression analysis.

[2] = Stability of compound in DMSO at room temperature by 1H-NMR; format: physicochemical; details: 4 mM in DMSO, sampled at 24, 72, 120 h
Procedure: The FV13 (6,8-dibromo-5,7-dihydroxyflavone) was tested for the stability by dissolving in DMSO at a concentration of 4 mM FV13 solution. The solution was incubated at room temperature and sampled out at 24, 72, and 120 hours for ^1H-NMR analysis.

[3] = Dengue virus, DENV2, LLC-MK2, read-out: DENV2 inhibition (%, means ± SEM)

In the case of `O=c1cc(-c2ccccc2)oc2c(Br)c(O)c(Br)c(O)c12` [FV13, 6,8-dibromo-5,7-dihydroxyflavone], the “decrease of DENV2 plaque titer from DMSO-treated baseline” value (DENV2; drug added at 12 hpi or later) is reported as 1 log, the “decrease of DENV2 plaque titer from DMSO-treated baseline” value (DENV2; drug added between 2–10 hpi) is reported as 2 log and the “intracellular viral RNA versus DMSO-treated samples” value (DENV2; drug addition at 12–24 hpi, RT-qPCR, in words) is reported as “no titer difference”. For the same molecule, the “decrease of intracellular viral RNA” value (DENV2; drug addition between 2–8 hpi, RT-qPCR) was 1 log, the “inhibition of virus production” value (DENV2 NGC; 10 μM and 25 μM, summary of Table 1) was over 99% and the inhibition at 10 µM (DENV2 NGC; [3]) was 99.45 ± 0.48%. The inhibition at 25 µM (DENV2 NGC; [3]) was 99.65 ± 0.41%, the inhibition at 5 µM [1] was 83.4 ± 2.04% and the inhibition at 10 µM [1] was 82.7 ± 4.01%. The “S.I. Selectivity index (CC50/EC50)” value (ZIKV (SV0010/15); CC50 in LLC/MK2) was 27.02, the EC50 (ZIKV (SV0010/15); Zika virus, LLC/MK2, plaque assay in 24-well plates) was 1.65 ± 0.86 µM and the “stability (no decomposition by NMR)” value [2] was “at least 120 h”.
